Measured values: US5440016A, “Peptides of the formula (KFmoc) ZZZ and their uses” (priority 1993, dated 1995)
Ends that are not written are not given here.

Molecular target: melittin (Apis mellifera, UniProt P01501)
Test: cell-based
Conditions: read-out: IC50, inhibition of melittin (converted)

Sequence of melittin (P01501 44-69 limits assumed): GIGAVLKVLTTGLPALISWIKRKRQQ

## Ac-IVILLM-NH2 [Ac-IVILLM-NH2]
  IC50: 27 µM

## Ac-IVILLN-NH2 [Ac-IVILLN-NH2]
  IC50: 17.9 µM

## Ac-IVILLP-NH2 [Ac-IVILLP-NH2]
  IC50: 36.7 µM

## Ac-IVILLQ-NH2 [Ac-IVILLQ-NH2]
  IC50: 12.2 µM

## Ac-IVILLR-NH2 [Ac-IVILLR-NH2]
  IC50: > 326 µM

## Ac-IVILLS-NH2 [Ac-IVILLS-NH2]
  IC50: 21.5 µM

## Ac-IVILLT-NH2 [Ac-IVILLT-NH2]
  IC50: 25.3 µM

## Ac-IVILLV-NH2 [Ac-IVILLV-NH2]
  IC50: 98.6 µM

## Ac-IVILLW-NH2 [Ac-IVILLW-NH2]
  IC50: 6.27 µM

## Ac-IVILLY-NH2 [Ac-IVILLY-NH2]
  IC50: 12.9 µM

## Ac-IVILTA-NH2 [Ac-IVILTA-NH2]
  IC50: 19.4 µM

## Ac-IVILTC-NH2 [Ac-IVILTC-NH2]
  IC50: 27.1 µM

## Ac-IVILTE-NH2 [Ac-IVILTE-NH2]
  IC50: 33 µM

## Ac-IVILTF-NH2 [Ac-IVILTF-NH2]
  IC50: 13.4 µM

## Ac-IVILTG-NH2 [Ac-IVILTG-NH2]
  IC50: 33.5 µM

## Ac-IVILTH-NH2 [Ac-IVILTH-NH2]
  IC50: 76.1 µM

## Ac-IVILTI-NH2 [Ac-IVILTI-NH2]
  IC50: > 351 µM

## Ac-IVILTK-NH2 [Ac-IVILTK-NH2]
  IC50: > 344 µM

## Ac-IVILTL-NH2 [Ac-IVILTL-NH2]
  IC50: 14 µM

## Ac-IVILTM-NH2 [Ac-IVILTM-NH2]
  IC50: 12.3 µM

## Ac-IVILTN-NH2 [Ac-IVILTN-NH2]
  IC50: 19.6 µM

## Ac-IVILTP-NH2 [Ac-IVILTP-NH2]
  IC50: 70.4 µM

## Ac-IVILTQ-NH2 [Ac-IVILTQ-NH2]
  IC50: 15.1 µM

## Ac-IVILTR-NH2 [Ac-IVILTR-NH2]
  IC50: > 331 µM

## Ac-IVILTS-NH2 [Ac-IVILTS-NH2]
  IC50: 52.5 µM

## Ac-IVILTT-NH2 [Ac-IVILTT-NH2]
  IC50: 62.9 µM

## Ac-IVILTV-NH2 [Ac-IVILTV-NH2]
  IC50: 30.1 µM

## Ac-IVILTW-NH2 [Ac-IVILTW-NH2]
  IC50: 14 µM

## Ac-IVILTY-NH2 [Ac-IVILTY-NH2]
  IC50: 23.6 µM

## Ac-MILWIE-NH2 [Ac-MILWIE-NH2]
  IC50: 13 µM

## Ac-VIQQFV-NH2 [Ac-VIQQFV-NH2]
  IC50: 20.7 µM

## Ac-WIQIFI-NH2 [Ac-WIQIFI-NH2]
  IC50: 25.6 µM

## DDEITF-NH2 [DDEITF-NH2]
  IC50: 1630 µM

## NDEIVF-NH2 [NDEIVF-NH2]
  IC50: 853 µM

## NDEIVI-NH2 [NDEIVI-NH2]
  IC50: 444 µM

## NEEIVF-NH2 [NEEIVF-NH2]
  IC50: 1210 µM

## NEEIVI-NH2 [NEEIVI-NH2]
  IC50: 509 µM
